Where a name gives a salt, the structure may show the parent alone.
Experiments:
[1] = tested on: acute miocardial infarction caused by ligation of coronary artery; experiment: Acute miocardial infarction by coronary artery ligation in rats, MPD injection (Example 3); type: in vivo, Wistar rats; settings: rat, n=10
Procedure: (§1) Methods: Applying the model of acute miocardial infarction caused by ligation of coronary artery, detecting miocardial infarction scope, coronary arterial flow and myocardial consumption of oxygen to observe the curative effect of MPD injection.
(§2) Rat was anaesthetized by 3.5% chloral hydrate (10 mL/kg, by weight), then linking to electric-respirator, scraping off the fur of chest, opening thoracic cavity, exposing cardiac pericardium and then ligating the root of the left anterior descending of coronary artery (LADCA).
2.2.1 Preliminary experiment: twenty rats were randomly divided into model control group (injecting physiological saline 3 mL/kg by vena caudalis) and MPD treated group (40 mg/kg, i.v), ten rats per group.
2.2.2 Repeated experiment: fifty rats were randomly divided into model control group (injecting physiological saline 3 ml/kg by vena caudalis), Di'ao Xinxuekang group (administering 40 mg/kg by intragastric administration), MPD dose-intensive group (80 mg/kg by vena caudalis injection), MPD moderate dose group (40 mg/kg) and MPD low-dose group (20 mg/kg), ten rats per group. Rats were treated after 30 minutes of preparing model successfully, and were executed after 24 hours, and observing the results.
(§3) Determining the scope of miocardial infarction (N-BT staining method): quickly taking out the heart from the executed animal, then washing by physiologic saline and dewatering with filter paper, the heart was cut into 4 pieces uniformly from apex of heart to ligating thread, then the pieces were put into N-BT staining solution, keeping in common temperature, avoiding light in 2 minutes. Then measuring the size of each slice, and the size of miocardial infarction (non-staining zone with N-BT) by colorful multimedia patho-image analytical system, total area of ventricular muscle, total area of infarction of ventricular muscle, and the ratio of miocardial infarction size relative to the size of ventricles were measured respectively.

[2] = tested on: acute miocardial infarction caused by ligation of coronary artery; experiment: Acute miocardial infarction by coronary artery ligation in canines (Example 3); type: in vivo, Adult hybrid canines; settings: canine; for Infarction size/heart size (%) / Infarction size/ventricles size (%): n=2
Procedure: as §1
Canine was anaesthetized by 3% Pentobarbital Sodium (1 mL/kg), opening the chest, exposing the heart and making up a arcula cordis bed; leading on an epicardial electrode and then ligating the root of the left anterior descending of coronary artery (LADCA). Venous cannula on thigh was administered to inject drug, arterial cannula on cervical and pipe from external jugular vein to vena coronaria sinus were administered, thus the blood was obtained separately and AtV oxygen content were measured.
2.2.3 Six canines were randomly divided into model control group (injecting physiological saline 1 mL/1 kg by femoral vein), positive control group (Diltiazem Hydrochloride solution 0.5 mg/kg) and MPD treated group (20 mg/kg by femoral vein), two canines per group. The data of N-ST, Σ-ST, the blood oxygen content of vena coronaria sinus and artery, and the scope of miocardial infarction of pro-administration were collected after administration at once, and 5, 15, 30, 60, 120, 180 minutes after administration.
Epicardial electrogram: recording the change of N-ST and Σ-ST.
as §3

[3] = tested on: Rat model of AMI; experiment: Rat model of AMI by ligating of coronary artery, PPD and MPD by pouring to stomach (Example 4); type: in vivo, Wistar rats; settings: for Death rate in operation / Infarction size/whole heart size (%): experiment 2 (repeated), 40 mg/kg by pouring to stomach
Procedure: (§4) Methods: Rat model of AMI was established by ligating of coronary artery.
as §2
(§5) 12 rats were randomly divided into model control group (physiological saline 5 mL/kg by pouring down throat) and PPD treated group (40 mg/5 mL/kg, by pouring to stomach), 6 rats per group. Rats were administrated one time after ligating, then be executed 24 hours later.
as §5, with “24” for “12”, “to stomach), MPD treated group (40 mg/5 mL/kg, by pouring to stomach)” for “down throat)”, “stomach).” for “stomach), 6 rats per group.”
as §3, with “5” for “4”

[4] = tested on: Rat model of AMI; experiment: Rat model of AMI by ligating of coronary artery, MPD, PPD and MPD+PPD mixture (Example 5); type: in vivo, Wistar rats; settings: 40 mg/kg by pouring to stomach, one time after ligating, 24 h, relative to size of ventricles
Procedure: as §4, §2
33 rats were randomly divided into model control group (physiological saline 5 mL/kg by pouring down throat), MPD treated group (40 mg/5 mL/kg, by pouring to stomach), PPD treated group (40 mg/5 mL/kg, by pouring to stomach) and MPD+PPD treated group (40 mg/5 mL/kg, by pouring to stomach). […]
as §3, with “5” for “4”

[5] = 20 mg/kg by femoral vein, 20 mg/kg

| SMILES | miocardial infarction size/ventricular size (%) ([1]; preliminary experiment, 40 mg/kg i.v., X ± SD, 40 mg/kg) | miocardial infarction size/ventricular size (%) ([1]; repeated experiment, dose-intensive 80 mg/kg by vena caudalis injection, 24 h) | miocardial infarction size/ventricular size (%) ([1]; repeated experiment, low-dose 20 mg/kg by vena caudalis injection, 24 h, 20 mg/kg) | miocardial infarction size/ventricular size (%) ([1]; repeated experiment, moderate dose 40 mg/kg by vena caudalis injection, 24 h, 40 mg/kg) | N-ST (epicardial electrogram) comparing with control group ([2]; 20 mg/kg by femoral vein, FIG. 4) | flow of aeteria coronaria comparing with control group ([2]; 20 mg/kg by femoral vein, FIG. 6) | miocardial consumption of oxygen (MCO) comparing with control group ([2]; 20 mg/kg by femoral vein, FIG. 7) | Infarction size/heart size (%) [2, 5] [%] | Infarction size/ventricles size (%) [2, 5] [%] | Death rate in operation [3] | Infarction size/whole heart size (%) ([3]; one time after ligating, 24 h) | infarct size (IS) (%) [4] [%] | Infarction size/heart size (%) ([2]; 0.5 mg/kg) | Infarction size/ventricles size (%) ([2]; 0.5 mg/kg) | miocardial infarction size/ventricular size (%) ([3]; experiment 1, 40 mg/kg by pouring to stomach, one time after ligating, 24 h, n=6, 40 mg/kg) |
| --- | --- | --- | --- | --- | --- | --- | --- | --- | --- | --- | --- | --- | --- | --- | --- |
| CO[C@]1(CC[C@@H](C)CO[C@@H]2O[C@H](CO)[C@@H](O)[C@H](O)[C@H]2O)O[C@H]2C[C@H]3[C@@H]4CC=C5C[C@@H](O[C@@H]6O[C@H](CO)[C@@H](O[C@@H]7O[C@@H](C)[C@H](O)[C@@H](O)[C@H]7O)[C@H](O)[C@H]6O[C@@H]6O[C@@H](C)[C@H](O)[C@@H](O)[C@H]6O)CC[C@]5(C)[C@H]4CC[C@]3(C)[C@H]2[C@@H]1C [MPD, Methylprotodioscin] | 33.4±8.09 | 30.62±9.46 | 37.89±8.41 | 32.32±6.92 | no significant difference | no significant difference | no significant difference | 2.74±0.33 | 7.30±0.97 | 0% (0/8) | 33.71 ± 6.73 | 36.24±3.74 |  |  |  |
| COc1ccc([C@@H]2Sc3ccccc3N(CCN(C)C)C(=O)[C@@H]2OC(C)=O)cc1 [Diltiazem Hydrochloride, reference compound] |  |  |  |  |  |  |  |  |  |  |  |  | 1.81 ± 0.79 | 4.36 ± 1.15 |  |
| CC1=C(CC[C@@H](C)CO[C@@H]2O[C@H](CO)[C@@H](O)[C@H](O)[C@H]2O)O[C@H]2C[C@H]3[C@@H]4CC=C5C[C@@H](O[C@@H]6O[C@H](CO)[C@@H](O[C@@H]7O[C@@H](C)[C@H](O)[C@@H](O)[C@H]7O)[C@H](O)[C@H]6O[C@@H]6O[C@@H](C)[C@H](O)[C@@H](O)[C@H]6O)CC[C@]5(C)[C@H]4CC[C@]3(C)[C@@H]12 [PPD, Pseudoprotodioscin] |  |  |  |  |  |  |  |  |  | 14.3% (1/7) | 36.31 ± 1.90 | 36.31±1.90 |  |  | 36.25±7.20 |

— US20070213280A1, “Steroidal Saponins Compound, the Process for Producing the Same and the Use Thereof” (GUILIN INNOVATIVE MEDICINES INVESTMENT LTD., CO., priority 2004, published 2007)
